{"source": "patent US20160184274A1", "about": "“Methods for inhibiting mesenchymal phenotype after epithelial-to-mesenchymal transition” (Fibrostatin, S.L., priority 2014, published 2016)", "system": "circulating 4T1 cells", "assay": "Cell death / caspase 3 activation in circulating 4T1 cells", "assay_type": "cell-based, Mouse", "procedure": "FIG. 11. T12 targets circulating 4T1 cancer cells. A, Balb/c female mice were inoculated with 4T1 mouse breast cancer cells at mammary fat pads. At day 20 after cell inoculation mice were subjected to PET analysis for metastases detection. White arrows denote metastatic foci at the spinal cord. B, Balb/c female from A were either left untreated (Control), or were treated with T12 in drinking water from day 20. At day 35 blood was seeded in the presence of 6-thioguanine and circulating 4T1 cells selected and further cultured. Shown are phase contrast images of the resulting cultures acquired with an inverted microscope. […] C, circulating 4T1 cells recovered as in B and 4T1 cells were cultured in standard 2D cultures and subjected to RNA extraction, and RNA samples were analyzed by RT-qPCR. Shown are the relative quantities (RQ) of the indicated mRNAs of circulating 4T1 cells using levels from 4T1 cells as reference. […] Dead cells in culture media were quantified by measuring cell size using an automated cell counter (Moxi Z, Orflo). […] E, circulating 4T1 cells recovered as in B or 4T1 cells were cultured in ultra-low binding plates and treated with the indicated concentrations of T12 for 9 days, cells were lysed and analyzed by Western blot using antibodies specific for activated caspase 3. The levels of GAPDH were determined for loading control purposes. […]", "data": [{"smiles": "COc1ccc(-c2ccc(-c3cccc(C)c3)c(C)c2)c(CCC(=O)O)c1", "note": "[T12, 3-[4″-methoxy-3,2′-dimethyl-(1,1′;4′,1″)terphenyl-2″-yl] propionic acid]", "values": [{"measurement": "sensitivity to T12 after further induction of mesenchymal phenotype", "setting": "4T1 cells inoculated into mice or cultured in low adherent dishes (3D cultures), FIG. 11", "result": "more sensitivity to T12"}, {"measurement": "sensitivity to T12: dead cells and activated caspase 3", "setting": "24 h (dead cells) or 9 days in ultra-low binding plates (caspase 3), FIG. 11D-E", "result": "more sensitive and underwent apoptotic cell death (caspase 3 activation)"}]}]}
